Experimental data as given in ChEMBL document CHEMBL1201862, “PubChem BioAssay data set” (2004).
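In this assay, cells in 96-well plates receive the compound at five concentrations for 48 hours. Endpoints are linearly interpolated between the surrounding concentrations. GI50: concentration for 50% inhibition of growth.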 The source made the active and inactive calls. Cut-off read from the data, not from the text of the source: active = GI50 up to about 1.1 µM and inactive = higher.

Columns and labels:
Test in all cases: NCI tumour cell line growth inhibition, 48 h
RXF 393 = test system: RXF 393
SK-MEL-28 = test system: SK-MEL-28
MOLT-4 = test system: MOLT-4
HOP-62 = test system: HOP-62
Hs-578T = test system: Hs-578T
IGROV-1 = test system: IGROV-1
SNB-75 = test system: SNB-75
MDA-MB-435 = test system: MDA-MB-435
SN12C = test system: SN12C
SK-OV-3 = test system: SK-OV-3
K562 = test system: K562
SF-268 = test system: SF-268
OVCAR-3 = test system: OVCAR-3
NCI/ADR-RES = test system: NCI/ADR-RES
NCI-H522 = test system: NCI-H522
DU-145 = test system: DU-145
COLO 205 = test system: COLO 205
MCF7 = test system: MCF7
UACC-62 = test system: UACC-62
PC-3 = test system: PC-3

Measured: GI50

COC(=O)c1cc(OC)c(OC)c(OC)c1-c1cc2c(cc1C=O)OCO2
inactive: RXF 393 > 10 µM | SK-MEL-28 > 10 µM | MOLT-4 > 10 µM | HOP-62 > 10 µM | Hs-578T > 10 µM | IGROV-1 > 10 µM | SNB-75 > 10 µM | MDA-MB-435 > 10 µM | SN12C > 10 µM | SK-OV-3 > 10 µM | K562 > 10 µM | SF-268 > 10 µM | OVCAR-3 > 10 µM | NCI/ADR-RES > 10 µM | NCI-H522 > 10 µM | DU-145 > 10 µM | COLO 205 > 10 µM | MCF7 > 10 µM | UACC-62 > 10 µM | PC-3 > 10 µM

C[C@H]1[C@H](C)CC[C@]2(C(=O)OC3OC(CO)C(O)C(O)C3O)CC[C@]3(C)C(=CC[C@@H]4[C@@]5(C)C[C@@H](O)[C@@H]6OC(=O)c7cc(O)c(O)c(O)c7-c7c(cc(O)c(O)c7O)C(=O)OC[C@@]6(CO)[C@@H]5CC[C@]43C)[C@H]12 (stereo not given in full)
inactive: RXF 393 > 100 µM | SK-MEL-28 > 100 µM | MOLT-4 39.5 µM | HOP-62 > 100 µM | Hs-578T > 100 µM | IGROV-1 > 100 µM | SNB-75 > 100 µM | MDA-MB-435 19.6 µM | SN12C 59.7 µM | SK-OV-3 98.6 µM | K562 32.7 µM | SF-268 > 100 µM | OVCAR-3 > 46.1 µM | NCI/ADR-RES > 100 µM | NCI-H522 > 59.3 µM | DU-145 > 100 µM | COLO 205 > 100 µM | MCF7 18.6 µM | UACC-62 > 87.7 µM | PC-3 > 88.3 µM

CCOC(=O)c1cccc(NC(=O)CCl)c1
inactive: RXF 393 3 µM | SK-MEL-28 16.7 µM | MOLT-4 5.2 µM | HOP-62 2.44 µM | Hs-578T 2.93 µM | IGROV-1 2.48 µM | SNB-75 2.77 µM | MDA-MB-435 2.38 µM | SN12C 2.01 µM | SK-OV-3 4.92 µM | K562 3.08 µM | SF-268 2.11 µM | OVCAR-3 1.86 µM | NCI/ADR-RES 3.61 µM | NCI-H522 1.68 µM | DU-145 9.44 µM | COLO 205 7.74 µM | MCF7 2.26 µM | UACC-62 1.52 µM | PC-3 6.1 µM

O=C1c2ccccc2C(=O)N1CCCC(=O)n1cc(F)c(=O)[nH]c1=O
inactive: RXF 393 > 47.4 µM | SK-MEL-28 > 100 µM | MOLT-4 35.4 µM | HOP-62 8.26 µM | Hs-578T > 100 µM | IGROV-1 3.4 µM | SNB-75 37 µM | MDA-MB-435 > 37.1 µM | SN12C > 26.1 µM | SK-OV-3 > 91 µM | K562 24.9 µM | SF-268 69.2 µM | OVCAR-3 > 22.7 µM | NCI/ADR-RES 7.98 µM | NCI-H522 37.4 µM | DU-145 10.1 µM | COLO 205 6.62 µM | MCF7 6.21 µM | UACC-62 23.6 µM | PC-3 30.1 µM

CC(=O)O[C@H]1/C(=C/c2ccncc2)C[C@H]2[C@@H]3CC=C4C[C@@H](N5CCCC5)CC[C@]4(C)[C@H]3CC[C@]12C
inactive: RXF 393 6.9 µM | SK-MEL-28 12.7 µM | MOLT-4 11.5 µM | HOP-62 14.2 µM | Hs-578T 16.6 µM | IGROV-1 12.6 µM | SNB-75 14.7 µM | MDA-MB-435 12.1 µM | SN12C 17 µM | SK-OV-3 17.9 µM | K562 2.74 µM | SF-268 15.1 µM | OVCAR-3 21.8 µM | NCI/ADR-RES 8.95 µM | NCI-H522 15.2 µM | DU-145 14.6 µM | COLO 205 11.4 µM | MCF7 12.1 µM | UACC-62 14.2 µM | PC-3 11.7 µM

CCOC(=O)c1c(Sc2ccc([N+](=O)[O-])cc2[N+](=O)[O-])nc2c3ccccc3ccn12
inactive: RXF 393 21 µM | SK-MEL-28 > 100 µM | MOLT-4 > 100 µM | HOP-62 13.1 µM | Hs-578T 13.8 µM | IGROV-1 > 31.6 µM | SNB-75 13.3 µM | MDA-MB-435 > 100 µM | SN12C 99.1 µM | SK-OV-3 15.9 µM | K562 > 100 µM | SF-268 28.6 µM | OVCAR-3 > 92.5 µM | NCI/ADR-RES > 71.9 µM | NCI-H522 41.7 µM | DU-145 > 100 µM | COLO 205 > 100 µM | MCF7 > 100 µM | UACC-62 > 39.8 µM | PC-3 > 100 µM

CN(C)/N=N/c1nc2c(c(=O)n(C)c(=O)n2C)n1C
inactive: RXF 393 > 100 µM | SK-MEL-28 > 100 µM | MOLT-4 > 100 µM | HOP-62 > 100 µM | Hs-578T > 100 µM | IGROV-1 > 100 µM | SNB-75 > 100 µM | MDA-MB-435 > 100 µM | SN12C > 100 µM | SK-OV-3 > 100 µM | K562 > 100 µM | SF-268 > 100 µM | OVCAR-3 > 100 µM | NCI/ADR-RES > 100 µM | NCI-H522 > 100 µM | DU-145 > 100 µM | COLO 205 > 100 µM | MCF7 7.5 µM | UACC-62 > 100 µM | PC-3 > 100 µM

NS(=O)(=O)c1cc(Cl)c(NC(=S)NC(=O)Nc2ccc(Cl)c(Cl)c2)c(Cl)c1
inactive: RXF 393 41.3 µM | SK-MEL-28 84.3 µM | MOLT-4 30.5 µM | HOP-62 > 100 µM | Hs-578T > 100 µM | IGROV-1 81.1 µM | SNB-75 59.8 µM | MDA-MB-435 32.7 µM | SN12C 36.8 µM | SK-OV-3 77.4 µM | K562 35.2 µM | SF-268 56.8 µM | OVCAR-3 39.6 µM | NCI/ADR-RES 37.4 µM | NCI-H522 26.1 µM | DU-145 67 µM | COLO 205 18 µM | MCF7 20.4 µM | UACC-62 23.1 µM | PC-3 33.9 µM

CCN(CC)CCCNc1ccc([N+](=O)[O-])c2nc3ccc(OC)cc3c(N)c12
inactive: RXF 393 > 10 µM | SK-MEL-28 > 10 µM | MOLT-4 1.33 µM | HOP-62 > 10 µM | Hs-578T 1.2 µM | IGROV-1 2.58 µM | SNB-75 1.93 µM | MDA-MB-435 1.62 µM | SN12C 2.07 µM | SK-OV-3 > 3.92 µM | K562 2.1 µM | SF-268 1.71 µM | OVCAR-3 > 4.46 µM | NCI/ADR-RES > 4.17 µM | NCI-H522 2.82 µM | DU-145 3.21 µM | COLO 205 1.34 µM | MCF7 > 4.37 µM | UACC-62 > 10 µM | PC-3 1.75 µM
